This passage reports IC50 results from patent publication US20230391748A1, “BICYCLIC INHIBITORS OF IRAK” (priority 2022, published 2023).

Experiment [1] relates to TNF-α in Human Primary Monocyte-Derived Dendritic Cells. Put plainly: Gardiquimod-Induced TNF-α in Human Primary Monocyte-Derived Dendritic Cells. It counts as cell-based. Conditions: Dendritic cell, IFNγ-primed monocyte-derived dendritic cells, 4 μg/ml Gardiquimod, 6 hours, TNF-α ELISA, read-out: TNFα (DC, GARD) (IC50). In short, it runs like this:
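Monocytes differentiated 7 days with GM-CSF and IL-4, then primed 24 h with 50 ng/ml IFN-γ. Compound added 1 h before 6 h stimulation with 4 μg/ml Gardiquimod, 0.5% DMSO final. Supernatant TNF-α measured by chemiluminescent ELISA; EC50 from curve fitting.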
Background: ELISA stands for enzyme-linked immunosorbent assay.

The next experiment addresses IRAK4 (Homo sapiens (Human), UniProt Q9NWZ3). Put plainly: IRAK4 ADP-Glo Assay. Conditions: MBP substrate. Type of experiment: biochemical. In short, it runs like this: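 Human IRAK4 kinase reaction with MBP substrate plus ATP in Tris-HCl/MgCl2/BSA/DTT buffer, pH 7.4, run 60 min at room temperature or 30 min at 30 °C. ADP formed was measured by ADP-Glo luminescence after ATP depletion (40 min) and detection reagent (30 min).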
(ADP-Glo first removes unused ATP, then detects ADP through luciferase.)

The subject of another experiment is TNF-α in human PBMCs. The experiment in a line: R848-induced TNF-α in human PBMCs Assay. Type of experiment: cell-based. The conditions noted are these: Homo sapiens, PBMC, 4 h, read-out: TNFα (PBMC, R848) (IC50, μM). An outline of the steps:
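Human PBMCs at 200K/well were pretreated with compound, then R848-stimulated for 4 h at 37 °C, 5% CO2. Supernatant TNF-α quantified by chemiluminescent ELISA; EC50 from curve fitting.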

Another experiment concerns IL23p19 in THP-1 Cells. Put plainly: LPS Induced IL23p19 in THP-1 Cells (with IFNγ Primed) Assay. It counts as cell-based. The conditions noted are these: Homo sapiens, THP-1, 18 h, read-out: IL23 (THP, LPS) (IC50, μM). In short, it runs like this: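 THP-1 cells (50K/well) primed with IFNγ (50 ng/mL) about 18 h, then given compound and stimulated with LPS for 18 h at 37 °C. Secreted IL-23p19 measured by sandwich ELISA with chemiluminescent read-out, giving EC50. Cell Titer Glo used on the remaining cells for toxicity.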

Chain of IRAK4 (Q9NWZ3 whole entry): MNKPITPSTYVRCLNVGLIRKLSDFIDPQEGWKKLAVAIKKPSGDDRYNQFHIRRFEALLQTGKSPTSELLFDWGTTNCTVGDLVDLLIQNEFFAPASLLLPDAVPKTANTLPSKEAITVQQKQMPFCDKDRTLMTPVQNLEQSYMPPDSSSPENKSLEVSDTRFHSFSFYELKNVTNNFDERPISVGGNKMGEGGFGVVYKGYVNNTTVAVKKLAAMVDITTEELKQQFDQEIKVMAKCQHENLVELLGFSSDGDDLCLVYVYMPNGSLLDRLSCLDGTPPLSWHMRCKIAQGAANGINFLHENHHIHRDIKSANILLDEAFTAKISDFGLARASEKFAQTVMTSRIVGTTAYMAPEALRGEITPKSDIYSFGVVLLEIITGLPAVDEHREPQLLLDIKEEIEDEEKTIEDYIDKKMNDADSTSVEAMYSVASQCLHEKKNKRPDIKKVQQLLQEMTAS

Consider `CC(C)Oc1cc2c(O[C@@H]3CCCN(C(=O)CC#N)C3)ncc(-c3cnn(C4CCN(C)CC4)c3)c2cc1C(N)=O` [Compound I-123, (R)-1-((1-(2-cyanoacetyl)piperidin-3-yl)oxy)-7-isopropoxy-4-(1-(1-methylpiperidin-4-yl)-1H-pyrazol-4-yl)isoquinoline-6-carboxamide], for which the IC50 stood at 217 nM in experiment [1], 19.2 nM on IRAK4, 0.145 µM with TNF-α in human PBMCs and 4.9 µM in the experiment on IL23p19 in THP-1 Cells.

With `CCO[C@H]1CC[C@H](n2cc(-c3cnc(O[C@@H]4CCCN(C(=O)CC#N)C4)c4cc(OC(C)C)c(C(N)=O)cc34)cn2)CC1` [Compound I-124, 1-(((R)-1-(2-cyanoacetyl)piperidin-3-yl)oxy)-4-(1-(trans-4-ethoxycyclohexyl)-1H-pyrazol-4-yl)-7-isopropoxyisoquinoline-6-carboxamide], the IC50 was 352 nM in experiment [1], 6.8 nM at IRAK4, 12.2 µM with TNF-α in human PBMCs and 0.609 µM with IL23p19 in THP-1 Cells.

Usually IC50 stands for the concentration at which inhibition is half-maximal.
